# Assays:
# [1] = target: T1, mSult1e1 (Mus musculus, UniProt P49891); test: FFA sulfoconjugation assay (N6-MF-A formation with adenosine as scavenger); format: biochemical
# T1 construct: made in house; host or cells: Salmonella typhimurium TA1538 (cytosolic fraction, enzyme not purified)
# T1 sequence (P49891 1-295): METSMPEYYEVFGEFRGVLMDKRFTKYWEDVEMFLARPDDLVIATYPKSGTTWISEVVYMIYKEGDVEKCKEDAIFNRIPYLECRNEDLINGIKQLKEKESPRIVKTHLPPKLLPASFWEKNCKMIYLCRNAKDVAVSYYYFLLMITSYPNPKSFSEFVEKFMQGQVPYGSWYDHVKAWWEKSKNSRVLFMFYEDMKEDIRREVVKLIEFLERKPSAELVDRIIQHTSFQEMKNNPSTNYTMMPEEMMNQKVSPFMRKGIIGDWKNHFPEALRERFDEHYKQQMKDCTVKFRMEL
# In short: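 Enzyme source: cytosolic preparations of TA1538 bacteria expressing single SULT forms. FFA + 10 mM adenosine, 20 min, 37 °C; stopped with cold methanol. Readout: N6-MF-A by UPLC-MS/MS, three MRM transitions, labelled internal standard; SULT-free background subtracted. Quadruplicates.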
# [2] = tested on: female B6C3F1 mice; test: Two-year bioassay of HMF, oral administration; format: in vivo; details: 70 kg human body weight, uptake 4–30 mg per person
# [3] = tested on: female B6C3F1 mice; set-up: method as in National Toxicology Program [2008]; details: oral 188 mg HMF/kg for 104 weeks, ref National Toxicology Program [2008]; cited from earlier work
Compound,Rate of N6-MF-A formation ([1]; 0.1 mM FFA) [fmol N ^6-MF-A/mg/min],Rate of N6-MF-A formation ([1]; 1 mM FFA) [fmol N ^6-MF-A/mg/min],Rate of N6-MF-A formation ([1]; 10 mM FFA) [fmol N ^6-MF-A/mg/min],margin between carcinogenic dose (188 mg/kg) and human HMF uptake [2],carcinogenic effect [3]
"OCc1ccco1 [FFA, furfuryl alcohol]",<18,49.3 ± 1.2,425 ± 3,,
"O=Cc1ccc(CO)o1 [HMF, 5-Hydroxymethylfurfural]",,,,"440- to 3,300 fold",increased incidences of hepatocellular adenomas

# Reference: article PMC4710668, “Bioactivation of food genotoxicants 5-hydroxymethylfurfural and furfuryl alcohol by sulfotransferases from human, mouse and rat: a comparative study” (Archives of Toxicology, 2014)
